This is an account of results in patent US20190327965A1, “AGENTS AND METHODS FOR TREATMENT OF PATHOGENS” (Hexima Limited, priority 2014, published 2019).

Where two headings read alike, the source gives them in different places. Bridge positions count the residues as written; N and C are the ends. Peptide text beside a SMILES is read from it. Bounds are passed on as bounds.

One assay relates to Saccharomyces cerevisiae. Description: Growth inhibition by hairpin peptide alone, Saccharomyces cerevisiae. The settings on record: hairpin peptide on its own. The class given is cell-based. The source says: Some α-hairpinin and β-hairpin peptides show efficacy on their own against pathogens at a concentration higher than the concentration used in a combination with a plant defensin.

Assay [1] relates to Colletotrichum graminicola.
The subject of assay [2] is Fusarium graminearum (Fgr). The class given is cell-based. Further details: relative uptake of SYTOX green: reference not given here.
In assay [3] the test system is Fusarium oxysporum f. sp. vasinfectum (Fov). The class given is cell-based. The arrangement: relative uptake of SYTOX green: reference not given here.

Turning to `C[C@@H](O)[C@@H]1NC(=O)[C@H](CCC(N)=O)NC(=O)[C@@H]2CSSC[C@H](NC(=O)[C@H](CCC(N)=O)NC(=O)[C@H](CCCNC(=N)N)NC(=O)[C@H](CCC(N)=O)NC(=O)[C@H](CCCNC(=N)N)NC(=O)[C@H](CCC(=O)O)NC(=O)[C@@H]3CCCN3C(=O)[C@H](CO)NC(=O)[C@H](CCC(N)=O)NC(=O)[C@H](CCC(=O)O)NC(=O)[C@H](CCC(N)=O)NC1=O)C(=O)N[C@@H](CCC(N)=O)C(=O)N[C@@H](CCC(N)=O)C(=O)N[C@@H](CCCNC(=N)N)C(=O)N[C@H](C(=O)N[C@@H](CCC(=O)O)C(=O)N[C@@H](CCCNC(=N)N)C(=O)N[C@@H](CCC(N)=O)C(=O)N[C@@H](Cc1ccc(O)cc1)C(=O)N[C@@H](CCCCN)C(=O)N[C@@H](CCC(=O)O)C(=O)O)CSSC[C@H](NC(=O)[C@H](CCCNC(=N)N)NC(=O)[C@H](Cc1c[nH]cn1)NC(=O)[C@H](Cc1ccc(O)cc1)NC(=O)[C@H](CCC(N)=O)NC(=O)[C@H](CCC(N)=O)NC(=O)[C@H](CCC(N)=O)NC(=O)[C@@H]1CCCN1C(=O)[C@@H](N)CC(=O)O)C(=O)N[C@@H](CCC(N)=O)C(=O)N[C@@H](CCCNC(=N)N)C(=O)N[C@@H](CCCNC(=N)N)C(=O)N2` [Cil_HPN_14F] (H-DPQQQYHRCQRRCQTQEQSPERQRQCQQRCERQYKE-OH; disulfide 9-30, 13-26 (inferred); N-terminus and C-terminus assumed), the IC50 in the assay on Saccharomyces cerevisiae came to 12 µM.
Take `CSCC[C@@H]1NC(=O)[C@@H]2CSSC[C@H](NC(=O)[C@H](CCC(=O)O)NC(=O)[C@H](CCCNC(=N)N)NC(=O)[C@H](CCCNC(=N)N)NC(=O)[C@@H](NC(=O)[C@H](CCC(=O)O)NC(=O)[C@H](CCCCN)NC(=O)CNC(=O)CNC(=O)CNC(=O)CNC(=O)[C@@H](N)Cc3c[nH]cn3)CSSC[C@@H](C(=O)N[C@@H](CCC(=O)O)C(=O)N[C@@H](Cc3c[nH]c4ccccc34)C(=O)N[C@@H](CCCNC(=N)N)C(=O)N[C@@H](CCCNC(=N)N)C(=O)N[C@@H](Cc3c[nH]cn3)C(=O)N[C@@H](CCC(=O)O)C(=O)O)NC(=O)[C@H](CCC(N)=O)NC(=O)[C@H](CCCNC(=N)N)NC1=O)C(=O)N[C@@H](CCCNC(=N)N)C(=O)NCC(=O)N[C@@H](Cc1ccc(O)cc1)C(=O)N[C@@H](CCCNC(=N)N)C(=O)N[C@@H](CC(=O)O)C(=O)N[C@@H](CCC(=O)O)C(=O)N1CCC[C@H]1C(=O)N[C@@H](Cc1c[nH]c3ccccc13)C(=O)N[C@@H](CCCNC(=N)N)C(=O)N[C@@H](CCCCN)C(=O)N[C@@H](CCC(N)=O)C(=O)N[C@@H](CCC(=O)O)C(=O)N2` [Osa_HPN_86B] (H-HGGGGKECRRECRGYRDEPWRKQECMRQCEWRRHE-OH; disulfide 8-29, 12-25 (inferred); N-terminus and C-terminus assumed): the IC50 in assay [1] turned out to be 13 µM; in the assay with Candida albicans, 9 µM; with Fusarium graminearum, 18 µM; in the assay with Saccharomyces cerevisiae it was 8 µM.
For `CSCC[C@@H]1NC(=O)[C@H](CC(C)C)NC(=O)[C@@H]2CSSC[C@H](NC(=O)[C@H](CCCNC(=N)N)NC(=O)[C@H](CCC(=O)O)NC(=O)[C@H](CCCNC(=N)N)NC(=O)[C@@H](NC(=O)[C@H](CCCCN)NC(=O)[C@H](CCCNC(=N)N)NC(=O)[C@H](CCCNC(=N)N)NC(=O)CNC(=O)[C@H](CCC(=O)O)NC(=O)CN)CSSC[C@@H](C(=O)N[C@@H](CCCCN)C(=O)N[C@@H](CO)C(=O)N[C@@H](CCCNC(=N)N)C(=O)N[C@@H](CCC(=O)O)C(=O)N[C@@H](CCC(N)=O)C(=O)N[C@@H](CCC(=O)O)C(=O)O)NC(=O)[C@H](CC(=O)O)NC1=O)C(=O)N[C@@H](CCC(=O)O)C(=O)N[C@@H](CCCNC(=N)N)C(=O)N[C@@H](Cc1c[nH]cn1)C(=O)N[C@@H](Cc1c[nH]cn1)C(=O)N[C@@H](CCCNC(=N)N)C(=O)NCC(=O)NCC(=O)N[C@@H](CC(=O)O)C(=O)N[C@@H](Cc1c[nH]c3ccccc13)C(=O)N[C@@H](Cc1c[nH]c3ccccc13)C(=O)N[C@@H](CCC(=O)O)C(=O)N[C@@H](CCCCN)C(=O)N[C@@H](CCC(N)=O)C(=O)N[C@@H](CCCNC(=N)N)C(=O)N2` [Sbi_HPN_104C] (H-GEGRRKCRERCERHHRGGDWWEKQRCLMDCKSREQE-OH; disulfide 7-30, 11-26 (inferred); N-terminus and C-terminus assumed), in that order: 16 µM, 7 µM, 7 µM and > 20 µM.
Consider `CC(C)[C@@H]1NC(=O)[C@@H]2CSSC[C@H](NC(=O)[C@H](CCC(N)=O)NC(=O)[C@H](CCCCN)NC(=O)[C@H](CCC(N)=O)NC(=O)[C@@H](NC(=O)[C@H](CCCNC(=N)N)NC(=O)[C@@H](N)CC(=O)O)CSSC[C@@H](C(=O)N[C@@H](CCCNC(=N)N)C(=O)N[C@@H](CCCNC(=N)N)C(=O)NCC(=O)N[C@@H](CCCNC(=N)N)C(=O)NCC(=O)N[C@@H](CO)C(=O)O)NC(=O)[C@H](CC(=O)O)NC(=O)[C@H](CCCNC(=N)N)NC1=O)C(=O)N[C@@H](CCC(N)=O)C(=O)N[C@@H](Cc1c[nH]cn1)C(=O)N[C@@H](Cc1ccc(O)cc1)C(=O)N[C@@H](CO)C(=O)N[C@@H](CC(=O)O)C(=O)N[C@@H](Cc1c[nH]c3ccccc13)C(=O)N[C@@H](CC(=O)O)C(=O)N[C@@H](CCCCN)C(=O)N[C@@H](CCCCN)C(=O)N[C@@H](CCC(N)=O)C(=O)N[C@@H](CCC(N)=O)C(=O)N2` [Sbi_HPN_104I] (H-DRCQKQCQHYSDWDKKQQCVRDCRRGRGS-OH; disulfide 3-23, 7-19 (inferred); N-terminus and C-terminus assumed), for which the IC50 in the assay with Saccharomyces cerevisiae is > 20 µM.
On to “EcAMP1: α-hairpinin peptide, SEQ ID NO:36, produced recombinantly in E. coli (GSGRGSCRSQCMRRHEDEPWRVQECVSQCRRRRGGGD; EcAMP1 Echinochloa crus-galli)”, for which the IC50 in assay [1] (read-out: IC50 Cgr) stood at 20 µM; with Candida albicans (read-out: IC50 C. alb), 8 µM; in the assay on Fusarium graminearum (read-out: IC50 Fgr) it was 7 µM; in the assay on Saccharomyces cerevisiae, 8 µM.
“HXL001: Class I permeabilizing defensin, mature protein SEQ ID NO:25 (RHCLSQSHRFKGLCMSSNNCANVCQTENFPGGECKAEGATRKCFCKKIC; HXL001 Zea Mays)”: in assay [2], the Permeability index is 0.9 and the “relative uptake of SYTOX green” value is given as 300.
With “HXL002: permeabilizing defensin, mature protein SEQ ID NO:26 (RDCLSQSHKFKGACLSSSNCAAVCRTENFPDGECHTHNFARKCFCKRAC; HXL002 Triticum aestivum)”, the values for the Permeability index in assay [3] and in assay [2] were 0.9 and 1.0, respectively. Also, the figures for the “relative uptake of SYTOX green” value in assay [3] and in assay [2] were 260 and 320, respectively.
On to “HXL004: Class I permeabilizing defensin, mature protein SEQ ID NO:27 (RTCESQSHRFKGLCFSRSNCASVCHTEGFNGGHCRGFRRRCFCTRHC; HXL004 Nicotiana benthamiana)”, for which, in assay [2], the Permeability index amounted to 1.6 and the “relative uptake of SYTOX green” value was 500.
Turning to “HXL007: permeabilizing defensin, mature protein SEQ ID NO:28 (RTCESLADTYRGPCFTDGSCDDHCKNKEHLISGRCRNDFRCWCTRNC; HXL007 Cyamopsis tetragonoloba)”, in assay [3], the Permeability index was determined as 1.2 and the “relative uptake of SYTOX green” value amounted to 350.
As to “HXL008: Class I permeabilizing defensin, mature protein SEQ ID NO:29 (KVCTKPSKFFKGLCGTDGACTTACRKEGLHSGYCQLKGFLNSVCVCRKHC; HXL008 Picramnia pentandra)”, in assay [3], the Permeability index is recorded as 0.8 and the “relative uptake of SYTOX green” value is on record as 225. Moreover, in assay [2], the Permeability index came out at 0.9 and the “relative uptake of SYTOX green” value worked out at 300.
On to “HXL013: Class I permeabilizing defensin, mature protein SEQ ID NO:30 (KDCLTRRHGFQGRCLFDRQCAHVCRSDGFIGGQCRGPLRKCFCSRPC; HXL013 Glycine max)”, for which, in assay [2], the Permeability index is 1.4 and the “relative uptake of SYTOX green” value is on record as 450.
Take “HXP4: synthetic (artificial) defensin variant, SEQ ID NO:8 (RECKTESHRFKGPCITKPPCRKACISEKFTDGHCSKILRRCLCTKPC; HXP4 protein)”: the Permeability index in assay [3] stood at 0.7; in assay [2], 1.3. The “relative uptake of SYTOX green” value is on record as 220 in assay [3] and 400 in assay [2].
Hordothionin [reference compound]: in assay [2], the Permeability index is 0.4 and the “relative uptake of SYTOX green” value came out at 120.
On to “NaD1: Class II Solanaceous defensin from flowers of ornamental tobacco Nicotiana alata (Q8GTM0) (RECKTESNTFPGICITKPPCRKACISEKFTDGHCSKILRRCLCTKPC; UniProt Q8GTM0 26-72, looked up)”, for which, in assay [3], the Permeability index was 1.0 and the “relative uptake of SYTOX green” value came to 300. Moreover, in assay [2], the Permeability index was 1.0 and the “relative uptake of SYTOX green” value is recorded as 320.
On to “RsAFP2: defensin compared in the Fgr permeabilization assay (QKLCQRPSGTWSGVCGNNNACKNQCIRLEKARHGSCNYVFPAHKCICYFPC; UniProt P30230 30-80, looked up) [reference compound]”, for which, in assay [2], the Permeability index is reported as 0.3 and the “relative uptake of SYTOX green” value turned out to be 100.
